In BindingDB's records for doi:10.1002/cbic.201600636 (The University of Sydney, 2017):

Legend:
Lipoxygenase = Lipoxygenase (Solanum tuberosum, UniProt O49150); assay: Colorimetric 5-LO Assay
Procedure: A colorimetric 5-LO assay kit (Lipoxygenase Inhibitor Screening Assay Kit) and potato 5-LO isolate were purchased from Cayman Chemicals (Ann Arbor, MI). 5-LO inhibition assay was performed according to the instruction manuals. All samples were dissolved in dimethyl sulfoxide, except for 1 and 2, which were dissolved in the assay buffers provided. All assays were performed in triplicate, and errors were calculated as standard deviation.

Histone deacetylase 1 = Histone deacetylase 1 (Homo sapiens, UniProt Q13547); assay: Fluorometric Activity Assay
Chain of Histone deacetylase 1 (Q13547 whole entry): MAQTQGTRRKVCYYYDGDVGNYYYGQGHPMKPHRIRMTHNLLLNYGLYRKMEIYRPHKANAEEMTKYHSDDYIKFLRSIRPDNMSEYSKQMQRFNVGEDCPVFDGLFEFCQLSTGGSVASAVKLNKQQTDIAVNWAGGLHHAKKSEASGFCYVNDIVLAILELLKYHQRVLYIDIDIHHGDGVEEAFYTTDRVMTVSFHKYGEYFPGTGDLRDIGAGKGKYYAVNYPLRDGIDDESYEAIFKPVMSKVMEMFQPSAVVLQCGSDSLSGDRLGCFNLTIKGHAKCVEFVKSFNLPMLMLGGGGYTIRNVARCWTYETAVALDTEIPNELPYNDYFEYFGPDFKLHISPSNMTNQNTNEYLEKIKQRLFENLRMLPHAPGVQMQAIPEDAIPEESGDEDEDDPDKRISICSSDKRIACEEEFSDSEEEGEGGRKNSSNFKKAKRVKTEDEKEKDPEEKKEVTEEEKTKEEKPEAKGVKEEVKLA
Procedure: A FLUOR DE LYS fluorometric activity assay kit (HDAC source: HeLa cell nuclear extract) and a FLUOR DE LYS HDAC1 fluorometric drug discovery assay kit (HDAC source: human recombinant HDAC1) were purchased from Enzo Life Sciences (Farmingdale, NY). HDAC inhibition assay was performed according to the instruction manuals. All samples were dissolved in dimethyl sulfoxide, except for 1 and 2, which were dissolved in the assay buffers provided. All assays were performed in triplicate, and errors were calculated as standard deviation.

Chain of Lipoxygenase (O49150 whole entry): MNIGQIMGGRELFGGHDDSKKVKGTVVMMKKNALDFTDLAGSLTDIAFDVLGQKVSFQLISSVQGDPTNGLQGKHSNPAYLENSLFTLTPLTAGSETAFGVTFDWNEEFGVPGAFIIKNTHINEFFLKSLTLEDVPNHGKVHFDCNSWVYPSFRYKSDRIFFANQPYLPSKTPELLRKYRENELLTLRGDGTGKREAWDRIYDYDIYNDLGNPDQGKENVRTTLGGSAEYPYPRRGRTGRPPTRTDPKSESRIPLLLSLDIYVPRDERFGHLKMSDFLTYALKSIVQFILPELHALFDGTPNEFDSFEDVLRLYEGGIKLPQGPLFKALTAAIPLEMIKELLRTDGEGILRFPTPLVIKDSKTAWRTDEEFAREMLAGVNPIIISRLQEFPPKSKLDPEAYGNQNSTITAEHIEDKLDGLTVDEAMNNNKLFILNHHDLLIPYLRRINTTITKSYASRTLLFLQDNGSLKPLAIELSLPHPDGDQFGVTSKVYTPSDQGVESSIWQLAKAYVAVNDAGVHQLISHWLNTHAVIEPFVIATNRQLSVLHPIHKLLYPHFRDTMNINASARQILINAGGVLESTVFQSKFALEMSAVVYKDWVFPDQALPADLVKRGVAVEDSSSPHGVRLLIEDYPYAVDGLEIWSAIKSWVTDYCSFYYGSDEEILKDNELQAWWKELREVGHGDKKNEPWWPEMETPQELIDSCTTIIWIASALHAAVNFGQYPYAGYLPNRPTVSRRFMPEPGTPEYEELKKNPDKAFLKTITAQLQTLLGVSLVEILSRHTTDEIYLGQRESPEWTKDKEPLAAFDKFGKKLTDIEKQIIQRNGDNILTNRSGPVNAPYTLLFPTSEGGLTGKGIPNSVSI

Compound	IC50 (Lipoxygenase) [µM]	IC50 (Histone deacetylase 1) [µM]
O=C(CCCCCN1C(=O)c2cccc3cccc(c23)C1=O)NO [6-(1,3-Dioxo-1H,3H-benzo[de]isoquinolin-2-yl)-hexanoic acid hydroxyamide]	212	–
CC(=O)N(O)CCCCCNC(=O)CCC(=O)N(O)CCCCCNC(=O)CCC(=O)N(O)CCCCCN1C(=O)c2cccc3cccc(c23)C1=O [BIQD-substituted compound, S1]	–	258
CC(=O)N(O)CCCCCN1C(=O)c2cccc3cccc(c23)C1=O [BIQD-substituted compound, S2]	58.9	172
CC(=O)N(O)CCCCCNC(=O)CCC(=O)N(O)CCCCCN1C(=O)c2cccc3cccc(c23)C1=O [BIQD-substituted compound, S5]	2340	314
CC(=O)N(O)C/C=C/c1cccc(Oc2ccccc2)c1 [N-(3-phenoxycinnamyl)acetohydroxamic acid]	17.1	–
